Assay results: article PMC8213057, “Targeting ALK2: An Open Science Approach to Developing Therapeutics for the Treatment of Diffuse Intrinsic Pontine Glioma” (Journal of Medicinal Chemistry, 2020)

Assays:
MNK1 = MNK1 (Homo sapiens, UniProt Q9BUB5); conditions: 1 μM; Run 1, Run 2
NEK11 = molecular target: T1, NEK11 (Homo sapiens, UniProt Q8NG66); conditions: 1 μM; Run 1, Run 2
T1 sequence (Q8NG66 1-645): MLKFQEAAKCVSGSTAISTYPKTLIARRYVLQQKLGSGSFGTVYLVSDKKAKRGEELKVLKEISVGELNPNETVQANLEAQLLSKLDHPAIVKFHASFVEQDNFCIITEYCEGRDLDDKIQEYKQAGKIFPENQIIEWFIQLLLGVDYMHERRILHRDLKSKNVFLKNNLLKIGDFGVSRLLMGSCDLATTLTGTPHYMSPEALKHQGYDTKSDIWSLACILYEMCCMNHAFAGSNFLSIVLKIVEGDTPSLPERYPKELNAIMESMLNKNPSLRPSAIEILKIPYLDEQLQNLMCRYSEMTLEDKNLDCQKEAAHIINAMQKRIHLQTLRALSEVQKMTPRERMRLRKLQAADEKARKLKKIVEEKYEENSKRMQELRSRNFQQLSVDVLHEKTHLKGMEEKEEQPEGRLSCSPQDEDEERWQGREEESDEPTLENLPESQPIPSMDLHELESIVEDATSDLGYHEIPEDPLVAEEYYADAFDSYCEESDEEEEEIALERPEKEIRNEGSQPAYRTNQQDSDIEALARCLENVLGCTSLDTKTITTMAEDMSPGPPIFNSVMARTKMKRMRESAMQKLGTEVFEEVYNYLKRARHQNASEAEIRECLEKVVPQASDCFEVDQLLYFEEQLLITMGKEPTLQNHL

PKCmu/PRKD1 = molecular target: T2, PKCmu/PRKD1 (Homo sapiens, UniProt Q15139); conditions: 1 μM; Run 1, Run 2
T2 sequence (Q15139 1-912): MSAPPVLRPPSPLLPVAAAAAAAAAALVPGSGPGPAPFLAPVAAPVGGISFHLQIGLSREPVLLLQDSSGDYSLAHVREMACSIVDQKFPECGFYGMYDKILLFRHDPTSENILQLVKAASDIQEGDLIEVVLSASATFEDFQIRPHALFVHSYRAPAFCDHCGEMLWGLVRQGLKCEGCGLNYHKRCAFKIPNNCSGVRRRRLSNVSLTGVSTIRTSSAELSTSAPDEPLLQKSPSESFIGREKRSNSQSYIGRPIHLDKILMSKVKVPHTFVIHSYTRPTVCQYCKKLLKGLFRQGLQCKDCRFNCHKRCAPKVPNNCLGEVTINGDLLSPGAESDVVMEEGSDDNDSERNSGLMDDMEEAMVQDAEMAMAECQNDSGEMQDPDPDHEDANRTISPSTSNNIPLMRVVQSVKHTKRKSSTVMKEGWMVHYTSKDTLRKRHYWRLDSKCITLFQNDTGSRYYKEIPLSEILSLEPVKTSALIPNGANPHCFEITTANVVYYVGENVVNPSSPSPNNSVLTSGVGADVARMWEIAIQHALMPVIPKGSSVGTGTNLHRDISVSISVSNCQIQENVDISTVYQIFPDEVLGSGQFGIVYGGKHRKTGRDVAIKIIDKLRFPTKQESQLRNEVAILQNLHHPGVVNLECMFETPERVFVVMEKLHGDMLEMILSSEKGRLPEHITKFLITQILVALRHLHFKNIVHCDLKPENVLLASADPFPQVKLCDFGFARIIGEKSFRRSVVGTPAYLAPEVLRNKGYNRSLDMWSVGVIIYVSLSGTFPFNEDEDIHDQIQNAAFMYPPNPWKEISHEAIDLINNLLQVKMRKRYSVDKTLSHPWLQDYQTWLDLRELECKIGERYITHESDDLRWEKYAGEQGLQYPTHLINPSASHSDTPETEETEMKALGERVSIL

PYK2 = PYK2 (Homo sapiens, UniProt Q14289); conditions: 1 μM; Run 1, Run 2
Sequence of PYK2 (Q14289 whole entry): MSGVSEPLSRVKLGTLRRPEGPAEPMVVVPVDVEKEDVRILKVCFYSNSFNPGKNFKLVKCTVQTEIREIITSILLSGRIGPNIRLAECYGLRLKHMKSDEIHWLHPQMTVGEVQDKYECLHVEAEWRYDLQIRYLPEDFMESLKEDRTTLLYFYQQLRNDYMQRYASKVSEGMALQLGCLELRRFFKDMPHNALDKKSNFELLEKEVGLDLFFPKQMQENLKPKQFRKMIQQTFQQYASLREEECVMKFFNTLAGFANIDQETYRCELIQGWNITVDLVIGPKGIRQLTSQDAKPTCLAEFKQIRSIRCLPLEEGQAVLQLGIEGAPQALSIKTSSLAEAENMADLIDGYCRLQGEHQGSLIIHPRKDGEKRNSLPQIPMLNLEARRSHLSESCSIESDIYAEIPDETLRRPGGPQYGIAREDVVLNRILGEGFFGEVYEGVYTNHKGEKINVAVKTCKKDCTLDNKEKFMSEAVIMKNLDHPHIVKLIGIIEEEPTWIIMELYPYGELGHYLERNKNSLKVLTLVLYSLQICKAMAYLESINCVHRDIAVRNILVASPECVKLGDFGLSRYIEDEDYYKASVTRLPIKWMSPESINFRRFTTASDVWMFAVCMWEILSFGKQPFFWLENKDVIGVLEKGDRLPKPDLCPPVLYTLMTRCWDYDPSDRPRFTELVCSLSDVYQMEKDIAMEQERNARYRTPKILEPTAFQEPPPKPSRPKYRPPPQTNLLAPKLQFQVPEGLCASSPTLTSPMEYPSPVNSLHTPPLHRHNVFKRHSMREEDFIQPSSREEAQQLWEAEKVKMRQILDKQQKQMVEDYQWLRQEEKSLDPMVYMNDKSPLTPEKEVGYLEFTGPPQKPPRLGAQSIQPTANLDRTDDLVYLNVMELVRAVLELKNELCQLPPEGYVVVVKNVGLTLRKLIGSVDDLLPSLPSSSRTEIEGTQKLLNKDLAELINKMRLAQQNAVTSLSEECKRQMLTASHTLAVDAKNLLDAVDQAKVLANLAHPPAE

SRPK1 = SRPK1 (Homo sapiens, UniProt Q96SB4); conditions: 1 μM; Run 1, Run 2
Sequence of SRPK1 (Q96SB4 whole entry): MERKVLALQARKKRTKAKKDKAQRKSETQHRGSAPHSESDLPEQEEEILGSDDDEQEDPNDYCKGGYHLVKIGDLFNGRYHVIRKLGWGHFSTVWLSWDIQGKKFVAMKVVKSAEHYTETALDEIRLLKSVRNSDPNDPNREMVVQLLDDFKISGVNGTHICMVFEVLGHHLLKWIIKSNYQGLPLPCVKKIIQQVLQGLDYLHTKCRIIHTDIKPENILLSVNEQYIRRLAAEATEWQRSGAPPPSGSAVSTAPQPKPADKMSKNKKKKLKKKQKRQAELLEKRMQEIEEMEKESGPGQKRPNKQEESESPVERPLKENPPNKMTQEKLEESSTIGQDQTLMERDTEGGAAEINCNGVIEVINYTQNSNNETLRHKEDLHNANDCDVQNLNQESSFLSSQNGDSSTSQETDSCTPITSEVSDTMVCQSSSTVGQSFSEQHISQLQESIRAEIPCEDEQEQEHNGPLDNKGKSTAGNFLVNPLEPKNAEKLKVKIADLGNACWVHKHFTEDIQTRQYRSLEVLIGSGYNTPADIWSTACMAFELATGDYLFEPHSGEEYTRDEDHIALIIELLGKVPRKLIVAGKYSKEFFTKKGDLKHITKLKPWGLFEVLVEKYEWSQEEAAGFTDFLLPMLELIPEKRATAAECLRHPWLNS

STK16 = STK16 (Homo sapiens, UniProt O75716); conditions: 1 μM; Run 1, Run 2
Sequence of STK16 (O75716 whole entry): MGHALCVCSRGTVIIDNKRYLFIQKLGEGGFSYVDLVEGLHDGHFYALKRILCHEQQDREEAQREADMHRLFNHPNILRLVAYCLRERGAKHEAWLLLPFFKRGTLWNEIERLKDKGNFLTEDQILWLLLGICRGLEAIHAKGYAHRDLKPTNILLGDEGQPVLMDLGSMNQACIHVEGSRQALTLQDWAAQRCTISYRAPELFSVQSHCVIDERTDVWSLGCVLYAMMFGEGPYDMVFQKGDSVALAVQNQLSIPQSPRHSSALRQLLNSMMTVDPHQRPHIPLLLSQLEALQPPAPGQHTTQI

OSR1/OXSR1 = OSR1/OXSR1 (Homo sapiens, UniProt O95747); assay: biochemical; conditions: read-out: % enzyme activity, 1 μM; Run 1, Run 2
Sequence of OSR1/OXSR1 (O95747 whole entry): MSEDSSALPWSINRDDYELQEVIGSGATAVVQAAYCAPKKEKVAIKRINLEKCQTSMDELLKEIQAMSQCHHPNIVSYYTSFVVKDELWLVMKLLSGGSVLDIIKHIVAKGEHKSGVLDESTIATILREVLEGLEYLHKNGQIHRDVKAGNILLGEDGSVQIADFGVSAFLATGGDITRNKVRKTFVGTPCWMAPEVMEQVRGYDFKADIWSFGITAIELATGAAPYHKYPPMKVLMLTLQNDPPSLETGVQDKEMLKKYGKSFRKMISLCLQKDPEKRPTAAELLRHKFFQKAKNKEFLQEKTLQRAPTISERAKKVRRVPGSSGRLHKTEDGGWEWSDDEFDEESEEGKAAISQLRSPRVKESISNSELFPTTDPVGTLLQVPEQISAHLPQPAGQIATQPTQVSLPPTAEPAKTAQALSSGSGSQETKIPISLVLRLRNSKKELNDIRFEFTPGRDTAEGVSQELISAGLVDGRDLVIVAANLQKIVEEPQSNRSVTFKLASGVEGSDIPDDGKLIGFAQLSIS

PKCnu/PRKD3 = molecular target: T3, PKCnu/PRKD3 (Homo sapiens, UniProt O94806); assay: biochemical; conditions: read-out: % enzyme activity, 1 μM; Run 1, Run 2
T3 sequence (O94806 1-890): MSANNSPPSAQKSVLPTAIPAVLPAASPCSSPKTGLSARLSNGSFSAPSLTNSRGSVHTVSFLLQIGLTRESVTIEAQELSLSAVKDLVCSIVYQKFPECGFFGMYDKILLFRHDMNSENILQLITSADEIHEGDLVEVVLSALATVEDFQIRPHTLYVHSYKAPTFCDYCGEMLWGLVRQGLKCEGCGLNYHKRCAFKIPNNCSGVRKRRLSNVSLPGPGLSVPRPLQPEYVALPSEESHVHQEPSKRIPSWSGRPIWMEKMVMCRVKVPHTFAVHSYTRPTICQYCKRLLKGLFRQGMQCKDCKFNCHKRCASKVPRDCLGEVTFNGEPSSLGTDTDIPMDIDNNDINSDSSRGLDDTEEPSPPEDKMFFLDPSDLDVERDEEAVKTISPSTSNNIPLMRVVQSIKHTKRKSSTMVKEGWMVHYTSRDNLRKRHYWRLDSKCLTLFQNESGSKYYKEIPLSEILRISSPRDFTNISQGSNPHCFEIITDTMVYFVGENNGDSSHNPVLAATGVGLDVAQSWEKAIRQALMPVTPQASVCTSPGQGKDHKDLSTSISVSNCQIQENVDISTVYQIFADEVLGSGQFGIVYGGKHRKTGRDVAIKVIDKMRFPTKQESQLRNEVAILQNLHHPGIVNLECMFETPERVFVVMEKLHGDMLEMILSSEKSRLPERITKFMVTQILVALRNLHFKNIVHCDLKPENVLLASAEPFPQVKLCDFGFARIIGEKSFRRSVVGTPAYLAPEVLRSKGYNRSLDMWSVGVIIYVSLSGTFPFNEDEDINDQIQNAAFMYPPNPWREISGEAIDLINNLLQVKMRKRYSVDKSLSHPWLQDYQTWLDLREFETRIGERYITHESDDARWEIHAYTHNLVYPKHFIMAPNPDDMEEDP

Sequence of MNK1 (Q9BUB5 whole entry): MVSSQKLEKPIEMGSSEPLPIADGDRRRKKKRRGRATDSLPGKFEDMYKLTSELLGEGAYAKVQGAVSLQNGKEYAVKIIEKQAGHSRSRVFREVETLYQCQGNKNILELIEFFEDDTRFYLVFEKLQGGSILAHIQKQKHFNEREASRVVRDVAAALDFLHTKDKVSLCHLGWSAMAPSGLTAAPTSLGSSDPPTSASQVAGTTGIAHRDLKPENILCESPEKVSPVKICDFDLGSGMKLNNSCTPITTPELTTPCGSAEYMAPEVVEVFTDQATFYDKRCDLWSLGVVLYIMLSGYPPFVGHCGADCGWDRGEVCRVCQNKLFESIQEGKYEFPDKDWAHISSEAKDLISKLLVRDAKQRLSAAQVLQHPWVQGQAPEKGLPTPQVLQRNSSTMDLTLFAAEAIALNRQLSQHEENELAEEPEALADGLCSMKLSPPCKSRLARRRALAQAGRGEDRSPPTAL

## COc1cc(-c2cncc(-c3ccc(N4CCN(C)CC4)cc3)c2C)cc(F)c1C(N)=O [Compound 26a, 2-Fluoro-6-methoxy-4-(4-methyl-5-(4-(4-methylpiperazin-1-yl)phenyl)pyridin-3-yl)benzamide]
MNK1
  % enzyme activity: 50.34%
NEK11
  % enzyme activity: 85.69%
PKCmu/PRKD1
  % enzyme activity: 88.26%
PYK2
  % enzyme activity: 85.65%
SRPK1
  % enzyme activity: 105.40%
STK16
  % enzyme activity: 103.69%
OSR1/OXSR1
  remaining activity at 1 µM: 93.4%
PKCnu/PRKD3
  remaining activity at 1 µM: 82.2%

## COc1cc(-c2cncc(-c3ccc(N4C[C@@H](C)N(C)[C@@H](C)C4)cc3)c2C)cc(F)c1C(N)=O [Compound 26c, 2-Fluoro-6-methoxy-4-(4-methyl-5-(4-((3R,5S)-3,4,5-trimethylpiperazin-1-yl)phenyl)pyridin-3-yl)benzamide]
MNK1
  % enzyme activity: 70.81%
NEK11
  % enzyme activity: 87.79%
PKCmu/PRKD1
  % enzyme activity: 95.09%
PYK2
  % enzyme activity: 85.73%
SRPK1
  % enzyme activity: 81.70%
STK16
  % enzyme activity: 99.45%
OSR1/OXSR1
  remaining activity at 1 µM: 95%
PKCnu/PRKD3
  remaining activity at 1 µM: 89%
